# Reference: patent US20030039628A1, “Activation and protection of T-cells (CD4+ and CD8+) using an H2 receptor agonist and other T-cell activating agents” (priority 1998, published 2003)
# Columns and labels:
# NK cells [1] = details: cited from earlier work
# T-cells and NK-cells = experiment: MO-induced cell death (apoptosis) of T-cells and NK-cells, flow cytometry; type: cell-based, human
# Method: In this Example, apoptotic morphology of lymphocytes exposed to MO was monitored by staining cells with a dye mix containing acridine orange (10:g/ml; Sigma) and ethidium bromide (10:g/ml; Sigma), both prepared in phosphate buffered saline. One microliter (1:1) of dye mix was added to 25:1 of cells suspension (1-2×10^6/ml) in siliconized test tubes. Thereafter, 10:1 of the cell suspension was placed on a glass slide and immediately counted in a fluorescence microscope (Nikon) under times forty (×40) magnification with qualification of dead, living, apoptotic and non-apoptotic cells. (See Hellstrand, K., et al. J. Immunol., 153: 4940-4947 (1994); Hansson, M., et al., J. Immunol. 156:42-47 (1996)).
# (See Hansson M., et al., supra). Cell death in lymphocytes was monitored by gating nonviable T-cells or NK-cells after exposure to MO, with and without histamine or catalase. A gate with reduced forward scatter and increased right angle scatter characteristic of apoptosis was employed in these studies. (See Hansson M., et al., supra; Mizgerd J. P., et al., J. Leukoc. Biol. 59:189 (1996); herein incorporated by reference; gate also described in Example 1).
# [2] = system: CD69 expression on T-cells; experiment: CD69 expression on T-cells incubated with or without autologous monocytes (MO), flow cytometry; type: cell-based, human
# Method: To study the activation characteristics of T-cells in the presence and absence of MO, T-cell activation compounds, H2-receptor agonists, and H2O2 scavengers, peripheral venous blood was obtained as freshly prepared leukopacks from healthy blood donors at the Blood Centre, Sahlgren's Hospital, Göteborg, Sweden. The blood (65 ml) was mixed with 92.5 ml Iscove's medium, 35 ml 6% Dextran (Kabi Pharmacia, Stockholm, Sweden) and 7.5 ml acid citrate dextrose (ACD) (Baxter, Deerfield, Ill.). After incubation for 15 minutes at room temperature, the supernatant was carefully layered onto Ficoll-Hypaque (Lymphoprep, Myegaard, Norway). Mononuclear cells (MNC) were collected at the interface after centrifugation at 380 g for 15 minutes at room temperature, washed twice in PBS and resuspended in Iscove's medium supplemented with 10% human AB^+ serum. During all further separation of cells, the cell suspensions were kept in siliconized test tubes (Vacuette, Greiner, Stockholm).
# The MNC were further separated into lymphocyte and monocyte (MO) populations using the counter-current centrifugal elutriation (CCE) technique originally described by Yasaka and co-workers (Yasaka, T. et al., J. Immunol., 127:1515) with modifications as described in Hansson, M., et al. (J. Immunol., 156: 42 (1996); hereby incorporated by reference). Briefly, the MNC were resuspended in elutration buffer containing 0.05% BSA and 0.015% EDTA in buffered NaCl and fed into a Beckman J2-21 ultracentrifuge with a JE-6B rotor at 2100 rpm. A fraction with >90% MO was obtained at a flow rate of 18 ml/min. A lymphocyte fraction enriched for NK-cells (CD3^−/56^+ phenotype) and T-cells (CD3^+/56^−) was recovered at flow rates of 14-15 ml/min. […] In some experiments, dynabeads (Dynal A/S, Oslo, Norway) coated with anti-CD56 were used to obtain purified lymphocyte preparations of T-cells, as described in detail by Hansson, M., et al., incorporated above.
# Flow cytometry was used in the experiments described below to identify the various sub-populations of T-cells. Flow cytometry permits an investigator to examine a population of cells using a number of labeled probes to differentiate sub-populations within the larger whole. In these experiments, the CD3 marker was used to identify the subpopulation of T-cells and the CD4 and CD8 markers were used to further identify the subpopulation of T-cells into T helper cells and CTLs. The effects of MO exposure in the presence and absence of histamine and T-cell activation compounds were determined using the CD69 T-cell activation marker. The expression of the different markers was estimated in a lymphocyte gate using flow cytometry (as described in Hellstrand, K., et al. Cell. Immunol. 138: 44-54 (1991), and hereby incorporated by reference).
# The following protocol was used in experiments reporting the detection of surface antigens of cell populations. One million cells were incubated with appropriate fluorescein isothiocynate (FITC) and phycoerythrin (PE) conjugated monoclonal antibodies (Becton & Dickinson, Stockholm, Sweden; 1:1/10^6 cells), on ice for 30 minutes. The cells were washed twice in PBS and resuspended in 500:1 sterile filtered PBS and analyzed by use of flow cytometry on a FACSort with a Lysys II software program (Becton & Dickenson). Lymphocytes were gated on the basis of forward and right angle scatter. The flow rate was adjusted to <200 cells×s^− and at least 5×10^3 cells were analyzed for each sample, if not otherwise stated.
# Isolated peripheral blood lymphocytes (150,000 cells/well in a total volume of 0.2 ml) were incubated in microplates for 16 hours at 37° C. in the presence or absence of autologous MO.
# H2 receptor = H2 receptor (Homo sapiens, UniProt P25021); details: cited from earlier work
# [3] = system: CD3e+ T-cells and CD56+ NK-cells; details: cited from earlier work
# [4] = system: herpes simplex virus (HSV); details: single dose of histamine; cited from earlier work
# NK cells [5] = details: absence of monocytes; cited from earlier work
# lymphocytes = details: cited from earlier work
# [6] = system: T-cell enriched lymphocytes; type: cell-based, human
# Sequence of H2 receptor (P25021 whole entry): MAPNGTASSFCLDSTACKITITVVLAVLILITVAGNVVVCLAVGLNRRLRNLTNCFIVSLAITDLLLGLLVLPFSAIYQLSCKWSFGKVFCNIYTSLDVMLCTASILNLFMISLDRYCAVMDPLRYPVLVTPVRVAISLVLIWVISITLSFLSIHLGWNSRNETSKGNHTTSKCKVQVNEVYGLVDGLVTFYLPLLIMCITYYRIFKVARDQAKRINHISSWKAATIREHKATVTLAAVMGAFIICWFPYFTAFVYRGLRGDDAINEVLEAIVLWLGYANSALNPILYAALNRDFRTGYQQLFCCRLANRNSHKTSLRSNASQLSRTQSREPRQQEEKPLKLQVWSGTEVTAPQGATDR
compound,measurement,setting,value
CNC(=C[N+](=O)[O-])NCCSCc1ccc(CN(C)C)o1 [ranitidine],action on histamine's effect on granulocyte mediated suppression of NK cell antibody dependent cytotoxicity,NK cells [1],blocked
CNC(=C[N+](=O)[O-])NCCOCc1ccc(CN(C)C)o1 [AH20399AA],reversal of the histamine effect on MO-induced cell death,T-cells and NK-cells; concentrations equimolar to 10-fold lower than histamine,not
same,antagonism of the histamine response on cytokine-induced CD69 expression,[2]; equimolar or 10-fold lower concentrations than histamine,did not block
same,reduction of affinity for the H2 receptor relative to ranitidine,H2 receptor,> 50 fold
IFN-α,effect of concomitant treatment on MO-induced cell death and on histamine protection,T-cells and NK-cells; 100 U/ml,unaffected
same,change of IFN-α-induced CD69 in CD3e+ cells by the addition of MO,"[2]; IFN-α, with vs. without MO",seemingly unchanged
same,induction of CD69 in CD3e+ cells,[2]; in response to IFN-α (100 U/ml),~10%
same,induction of CD69 in CD4+ cells compared with IL-2,"[2]; incubated without MO, p<0.01",less effective than IL-2
same,IFN-α induced level of CD69 on CD4+ cells when MO were added,"[2]; with vs. without MO, p<0.05",significantly higher
OO [hydrogen peroxide],concentration required to induce apoptosis in CD3e+ T-cells relative to CD56+ NK-cells,[3],Approximately 5 fold
CN(C)CCCSC(=N)N [dimaprit],action on histamine's effect on granulocyte mediated suppression of NK cell antibody dependent cytotoxicity,NK cells [1],mimicked
NCCc1c[nH]cn1 [histamine],survival time of HSV-inoculated animals,[4],prolong survival time
same,prevention of MO-induced cell death,"T-cells and NK-cells; all subsets of T-cells and NK-cells, histamine 50 :M, 16 hours",> 80%
same,effect on NK mediated cytotoxicity,NK cells [5],no effect or weakly suppressed
same,effect on lymphocyte proliferation in response to phytohemagglutinin or staphylococcal enterotoxin type A,lymphocytes,reduce the proliferation
same,effect on vaccine-induced proliferation,[6],strongly potentiated
same,proliferation of cells not treated with the vaccine,[6],slightly augmented
same,effect on CD69 expression in CD3+ and CD4+ T-cells incubated with IFN-α,[2]; MO present vs. absence of MO,enhanced the expression of CD69 to a significantly higher level
same,effect on MO-induced inhibition of IL-2 induced acquisition of CD69 in T-cells,"[2]; histamine 50 :M, IL-2 100 U/ml, with MO",counteracted
same,effect on CD69 expression in non-stimulated or cytokine-activated T-cells,"[2]; histamine 50 :M, incubated without MO",did not significantly alter
same,effect on CD69 expression in CD8+ cells activated with IFN-α,[2]; with MO,restored by histamine to the level observed in pure lymphocytes
same,ED50 of effect on cytokine-induced expression of CD69 in T-cells,"[2]; with MO, histamine 0.1-50:M, dose-dependent",approximately 2 :M
catalase,mimicking of the histamine effect on MO-induced cell death,T-cells and NK-cells,mimicked
same,effect on induction of CD69 in the absence of MO,[2]; absence of MO,did not affect
same,effect on MO-induced inhibition of cytokine-induced CD69 expression,"[2]; catalase 10-200 U/ml, IL-2 100 U/ml, with MO",significantly reversed
same,effect of catalase alone on percentage of CD3+ cells expressing CD69,"[2]; catalase alone, 0 to 200 U/ml, with MO",little effect
same,percentage of CD3+ cells expressing the CD69 marker,"[2]; with MO, IL-2 100 U/ml, catalase 200 U/ml",~11%
